# Where two headings read alike, the source gives them in different places.
# Key:
# [1] = biological target: human TLR7 (Homo sapiens (Human), UniProt Q9NYK1); assay: TLR7 inhibition reporter assay (HEK-Blue cells, SEAP reporter, gardiquimod stimulation); format: cell-based
# Procedure: TLR7/8/9 Inhibition Reporter Assays
# Briefly, cells are seeded into Greiner 384 well plates (15000 cells per well for TLR7, 20,000 for TLR8 and 25,000 for TLR9) and then treated with test compounds in DMSO to yield a final dose response concentration range of 0.05 nM-50 μM. […] After a 22 hour incubation at 37° C., 5% CO2, SEAP levels are determined with the addition of HEK-Blue™ Detection reagent (Invivogen), a cell culture medium that allows for detection of SEAP, according to manufacturer's specifications. The percent inhibition is determined as the % reduction in the HEK-Blue signal present in wells treated with agonist plus DMSO alone compared to wells treated with a known inhibitor.
# [2] = biological target: human TLR8 (Homo sapiens (Human), UniProt Q9NR97); assay: TLR8 inhibition reporter assay (HEK-Blue cells, SEAP reporter, R848 stimulation);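 note: compounds tested from 0.05 nM to 50 µM, 22 h at 37 °C, SEAP measured with HEK-Blue Detection, inhibition relative to agonist plus DMSO versus a known inhibitor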
# Sequence of human TLR8 (Q9NR97 27-1041): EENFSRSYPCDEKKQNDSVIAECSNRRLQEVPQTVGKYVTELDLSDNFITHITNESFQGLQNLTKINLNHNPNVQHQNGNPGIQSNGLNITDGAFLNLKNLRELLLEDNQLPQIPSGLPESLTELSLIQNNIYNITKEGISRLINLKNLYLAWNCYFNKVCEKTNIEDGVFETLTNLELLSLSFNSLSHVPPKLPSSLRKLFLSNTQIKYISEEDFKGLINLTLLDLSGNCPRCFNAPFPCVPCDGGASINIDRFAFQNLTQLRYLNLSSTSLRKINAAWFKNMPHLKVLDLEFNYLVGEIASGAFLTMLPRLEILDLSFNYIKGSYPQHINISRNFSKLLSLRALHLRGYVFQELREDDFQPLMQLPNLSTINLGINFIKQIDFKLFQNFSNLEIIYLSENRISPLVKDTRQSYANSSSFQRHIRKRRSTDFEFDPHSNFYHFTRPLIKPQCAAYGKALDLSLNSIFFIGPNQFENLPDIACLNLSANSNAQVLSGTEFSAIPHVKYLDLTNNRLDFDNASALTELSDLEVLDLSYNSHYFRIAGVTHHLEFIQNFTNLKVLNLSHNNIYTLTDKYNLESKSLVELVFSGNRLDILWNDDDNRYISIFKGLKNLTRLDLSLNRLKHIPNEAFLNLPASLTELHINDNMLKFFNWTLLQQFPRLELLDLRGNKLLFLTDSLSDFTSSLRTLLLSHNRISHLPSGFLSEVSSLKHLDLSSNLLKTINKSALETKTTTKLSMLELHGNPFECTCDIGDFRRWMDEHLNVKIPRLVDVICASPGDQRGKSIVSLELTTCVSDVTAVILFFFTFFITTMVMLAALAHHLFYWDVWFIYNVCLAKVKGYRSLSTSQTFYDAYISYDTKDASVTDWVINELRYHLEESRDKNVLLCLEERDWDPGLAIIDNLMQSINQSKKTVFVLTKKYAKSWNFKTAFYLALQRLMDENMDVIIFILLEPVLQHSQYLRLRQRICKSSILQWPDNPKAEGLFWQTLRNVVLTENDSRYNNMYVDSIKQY
# [3] = biological target: human TLR9 (Homo sapiens (Human), UniProt Q9NR96); assay: TLR9 inhibition reporter assay (HEK-Blue cells, SEAP reporter, ODN2006 stimulation);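 note: compounds tested over 0.05 nM to 50 µM, 22 h incubation, inhibition taken as SEAP signal drop from agonist plus DMSO wells toward a known inhibitor control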
# Sequence of human TLR9 (Q9NR96 26-1032): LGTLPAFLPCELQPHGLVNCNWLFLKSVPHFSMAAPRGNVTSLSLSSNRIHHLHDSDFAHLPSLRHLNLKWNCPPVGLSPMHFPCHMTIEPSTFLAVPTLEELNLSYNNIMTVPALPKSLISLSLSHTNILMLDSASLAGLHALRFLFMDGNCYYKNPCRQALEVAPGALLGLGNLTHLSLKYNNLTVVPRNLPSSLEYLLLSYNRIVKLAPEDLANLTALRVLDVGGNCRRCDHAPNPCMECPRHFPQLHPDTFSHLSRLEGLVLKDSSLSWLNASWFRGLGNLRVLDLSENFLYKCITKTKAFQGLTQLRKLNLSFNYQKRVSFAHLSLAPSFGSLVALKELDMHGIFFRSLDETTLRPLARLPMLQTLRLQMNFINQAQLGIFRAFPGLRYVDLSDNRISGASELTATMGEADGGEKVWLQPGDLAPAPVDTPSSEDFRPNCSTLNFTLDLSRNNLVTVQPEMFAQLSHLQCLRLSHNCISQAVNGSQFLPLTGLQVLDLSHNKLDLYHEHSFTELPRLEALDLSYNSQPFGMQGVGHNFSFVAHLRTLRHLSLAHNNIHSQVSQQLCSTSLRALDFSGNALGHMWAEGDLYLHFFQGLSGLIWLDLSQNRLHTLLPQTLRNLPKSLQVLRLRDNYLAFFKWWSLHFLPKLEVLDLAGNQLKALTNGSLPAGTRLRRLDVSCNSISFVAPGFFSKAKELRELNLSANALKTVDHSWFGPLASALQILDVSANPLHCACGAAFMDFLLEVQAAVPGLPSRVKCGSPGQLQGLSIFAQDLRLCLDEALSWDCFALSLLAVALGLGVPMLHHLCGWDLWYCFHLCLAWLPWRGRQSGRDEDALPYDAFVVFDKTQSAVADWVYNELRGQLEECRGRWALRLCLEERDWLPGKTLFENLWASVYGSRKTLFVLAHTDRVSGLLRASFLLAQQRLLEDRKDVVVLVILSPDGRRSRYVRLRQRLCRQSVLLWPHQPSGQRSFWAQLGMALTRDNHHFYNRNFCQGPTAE
# [4] = HEK-Blue cells overexpressing human TLR7, gardiquimod 7.5 μM
# [5] = read-out: TLR8 IC50, HEK-Blue cells overexpressing human TLR8, R848 15.9 μM
# [6] = read-out: TLR9 IC50, HEK-Blue cells overexpressing human TLR9, ODN2006 5 nM
# [7] = HEK-Blue cells, gardiquimod 7.5 μM
# [8] = read-out: TLR8 IC50, HEK-Blue cells, R848 15.9 μM
# [9] = read-out: TLR9 IC50, HEK-Blue cells, ODN2006 5 nM
# Sequence of human TLR7 (Q9NYK1 27-1049): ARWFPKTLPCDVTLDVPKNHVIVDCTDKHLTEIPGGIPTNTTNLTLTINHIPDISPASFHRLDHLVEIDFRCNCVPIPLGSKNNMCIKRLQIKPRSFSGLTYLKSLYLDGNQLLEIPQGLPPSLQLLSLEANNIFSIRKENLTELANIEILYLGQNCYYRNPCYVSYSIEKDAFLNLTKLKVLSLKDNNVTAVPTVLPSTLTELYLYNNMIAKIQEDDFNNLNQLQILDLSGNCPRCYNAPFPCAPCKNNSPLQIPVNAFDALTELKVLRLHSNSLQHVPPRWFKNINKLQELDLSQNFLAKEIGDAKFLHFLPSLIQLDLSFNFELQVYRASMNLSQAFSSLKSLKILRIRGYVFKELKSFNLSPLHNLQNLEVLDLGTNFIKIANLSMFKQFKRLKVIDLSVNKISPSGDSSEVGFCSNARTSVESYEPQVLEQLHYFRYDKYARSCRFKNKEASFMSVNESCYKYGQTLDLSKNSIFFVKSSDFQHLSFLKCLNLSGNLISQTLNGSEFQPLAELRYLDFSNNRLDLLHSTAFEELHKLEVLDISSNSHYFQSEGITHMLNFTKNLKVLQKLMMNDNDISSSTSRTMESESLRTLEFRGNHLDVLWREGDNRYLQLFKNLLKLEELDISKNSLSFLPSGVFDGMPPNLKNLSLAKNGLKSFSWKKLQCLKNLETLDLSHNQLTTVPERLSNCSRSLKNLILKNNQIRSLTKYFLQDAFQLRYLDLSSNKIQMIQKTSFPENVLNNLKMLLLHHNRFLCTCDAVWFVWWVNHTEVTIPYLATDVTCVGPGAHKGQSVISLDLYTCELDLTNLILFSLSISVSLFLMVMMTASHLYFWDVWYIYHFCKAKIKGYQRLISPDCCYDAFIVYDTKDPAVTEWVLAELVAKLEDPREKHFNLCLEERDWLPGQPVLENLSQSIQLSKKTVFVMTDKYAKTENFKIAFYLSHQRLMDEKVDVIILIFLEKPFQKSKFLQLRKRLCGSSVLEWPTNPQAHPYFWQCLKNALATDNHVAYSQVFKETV
Compound,"IC50 [1, 4] [nM]","IC50 [2, 5] [nM]","IC50 [3, 6] [nM]","IC50 [1, 7] [nM]","IC50 [2, 8] [nM]","IC50 [3, 9] [nM]"
"Cc1cc(-c2[nH]c3ccc(C4CCN(Cc5ccn(C)n5)CC4)cc3c2C(C)C)cc(C)n1 [Example 445, 2-(2,6-dimethylpyridin-4-yl)-3-isopropyl-5-(1-((1-methyl-1H-pyrazol-3-yl)methyl)piperidin-4-yl)-1H-indole]",3.6,0.7,314,,,
"C=C(c1c(-c2cc(C)nc(C)c2)[nH]c2ccc(C3CCNCC3)cc12)C(F)(F)F [Example 91, 2-(2,6-dimethylpyridin-4-yl)-5-(piperidin-4-yl)-3-(3,3,3-trifluoroprop-1-en-2-yl)-1H-indole]",3.2,15.3,92,,,
"Cc1ccc(OC(=O)N2CCC(c3ccc4[nH]c(-c5ccnc(C)c5)c(C(C)C)c4c3)CC2)cc1 [Example 557, p-Tolyl 4-(3-isopropyl-2-(2-methylpyridin-4-yl)-1H-indol-5-yl)piperidine-1-carboxylate]",1530,3250,6040,,,
"CCc1c(-c2ccnc(OC)c2)[nH]c2ccc(C3CCN(C4CCN(C5CCCC5)CC4)CC3)cc12 [Example 785, 5-(1′-cyclopentyl-[1,4′-bipiperidin]-4-yl)-3-ethyl-2-(2-methoxypyridin-4-yl)-1H-indole]",790,117,282,,,
"Cc1cc(-c2[nH]c3ccc(C4CCN(C(=O)CN5CCOCC5)CC4)cc3c2C(C)C)cc(C)n1 [Example 350, 1-(4-(2-(2,6-dimethylpyridin-4-yl)-3-isopropyl-1H-indol-5-yl)piperidin-1-yl)-2-morpholinoethan-1-one]",5.3,29,3910,,,
"Cc1cc(-c2[nH]c3ccc(C4CCN(C(=O)CN(C)Cc5ncn(C)n5)CC4)cc3c2C(C)C)cc(C)n1 [Example 419, 1-(4-(2-(2,6-dimethylpyridin-4-yl)-3-isopropyl-1H-indol-5-yl)piperidin-1-yl)-2-(methyl((1-methyl-1H-1,2,4-triazol-3-yl)methyl)amino)ethan-1-one]",10.7,117,45500,,,
"COc1ccc(CN2CCC(c3ccc4[nH]c(-c5cc(C)nc(C)c5)c(C(C)C)c4c3)CC2)cn1 [Example 424, 2-(2,6-dimethylpyridin-4-yl)-3-isopropyl-5-(1-((6-methoxypyridin-3-yl)methyl)piperidin-4-yl)-1H-indole]",8.3,7.2,255,,,
"Cc1cc(-c2[nH]c3ccc(C4CCN(C5CCOC6CCCC65)CC4)cc3c2C(C)C)cc(C)n1 (stereo not drawn) [Example 458, 2-(2,6-dimethylpyridin-4-yl)-3-isopropyl-5-(1-(octahydrocyclopenta[b]pyran-4-yl)piperidin-4-yl)-1H-indole]",16.6,21.3,534,,,
"Cc1cc(-c2[nH]c3ccc(C4CCN(C5CCNCC5F)CC4)cc3c2C(C)C)ccn1 (stereo not drawn) [Example 705, 5-(3′-fluoro-[1,4′-bipiperidin]-4-yl)-3-isopropyl-2-(2-methylpyridin-4-yl)-1H-indole]",21.9,6.2,708,,,
"CCC(=O)N1CCC(c2ccc3[nH]c(-c4ccnc(C)c4)c(C(C)C)c3c2)CC1 [Example 603, 1-(4-(3-isopropyl-2-(2-methylpyridin-4-yl)-1H-indol-5-yl)piperidin-1-yl)propan-1-one]",49,228,37300,,,
"Cc1cc(-c2[nH]c3ccc(C4CCN(C)CC4)cc3c2CC(F)F)cc(C)n1 [Example 539, 3-(2,2-difluoroethyl)-2-(2,6-dimethylpyridin-4-yl)-5-(1-methylpiperidin-4-yl)-1H-indole]",23.3,81.2,4820,,,
"COc1ncc(CN(C)CC(=O)N2CCC(c3ccc4[nH]c(-c5cc(C)nc(C)c5)c(C(C)C)c4c3)CC2)cn1 [Example 418, 1-(4-(2-(2,6-dimethylpyridin-4-yl)-3-isopropyl-1H-indol-5-yl)piperidin-1-yl)-2-(((2-methoxypyrimidin-5-yl)methyl)(methyl)amino)ethan-1-one]",3,30.6,2050,,,
"Cc1cc(-c2[nH]c3ccc(C4CCN(C(=O)Cc5cc(C)nn5C)CC4)cc3c2C(C)C)cc(C)n1 [Example 136, 2-(1,3-dimethyl-1H-pyrazol-5-yl)-1-(4-(2-(2,6-dimethylpyridin-4-yl)-3-isopropyl-1H-indol-5-yl)piperidin-1-yl)ethan-1-one]",23.3,134,30000,,,
"CCc1c(-c2ccnc(C)c2)[nH]c2ccc(C3CCN(C[C@@H]4CCNC4)CC3)cc12 [Example 739, (R)-3-ethyl-2-(2-methylpyridin-4-yl)-5-(1-(pyrrolidin-3-ylmethyl)piperidin-4-yl)-1H-indole]",120,8.2,96,,,
"Cc1cc(-c2[nH]c3ccc(C4CCN(C(C)CF)CC4)cc3c2C(C)C)ccn1 (stereo not drawn) [Example 864, 5-(1-(1-fluoropropan-2-yl)piperidin-4-yl)-3-isopropyl-2-(2-methylpyridin-4-yl)-1H-indole]",,,,16.7,10.7,917
"Cc1cc(-c2[nH]c3ccc(C4CCN(S(=O)(=O)c5cccnc5)CC4)cc3c2C(C)C)ccn1 [Example 543, 3-isopropyl-2-(2-methylpyridin-4-yl)-5-(1-(pyridin-3-ylsulfonyl)piperidin-4-yl)-1H-indole]",119,206,9750,,,
"Cc1cc(-c2[nH]c3ccc(C4CCN(CC(C)(C)O)CC4)cc3c2C(C)C)cc(C)n1 [Example 848, 1-(4-(2-(2,6-dimethylpyridin-4-yl)-3-isopropyl-1H-indol-5-yl)piperidin-1-yl)-2-methylpropan-2-ol]",,,,2.3,1.7,398
"Cc1cc(-c2[nH]c3ccc(C4CCN(CC(O)C(F)(F)F)CC4)cc3c2C(C)C)ccn1 (stereo not drawn) [Example 661, 1,1,1-trifluoro-3-(4-(3-isopropyl-2-(2-methylpyridin-4-yl)-1H-indol-5-yl)piperidin-1-yl)propan-2-ol]",30.9,3.1,1940,,,
"COc1cc(-c2[nH]c3ccc(C4CCN(CC(F)(F)F)CC4)cc3c2C(C)C)ccn1 [Example 639, 3-isopropyl-2-(2-methoxypyridin-4-yl)-5-(1-(2,2,2-trifluoroethyl)piperidin-4-yl)-1H-indole]",3110,13400,19400,,,
"Cc1nc(CN2CCC(c3ccc4[nH]c(-c5ccnc(C6CC6)c5)c(C(C)C)c4c3)CC2)c[nH]1 [Example 484, 2-(2-cyclopropylpyridin-4-yl)-3-isopropyl-5-(1-((2-methyl-1H-imidazol-4-yl)methyl)piperidin-4-yl)-1H-indole]",77.6,96.3,279,,,
"Cc1cc(-c2[nH]c3ccc(C4CCN(C5COC5)CC4)cc3c2C(C)C)c(C)cn1 [Example 722, 2-(2,5-dimethylpyridin-4-yl)-3-isopropyl-5-(1-(oxetan-3-yl)piperidin-4-yl)-1H-indole]",24.4,6.3,5890,,,
"Cc1cc(-c2[nH]c3ccc(C4CCN(CC(=O)N5CCCC(C)(C)C5)CC4)cc3c2C(C)C)cc(C)n1 [Example 249, 1-(3,3-dimethylpiperidin-1-yl)-2-(4-(2-(2,6-dimethylpyridin-4-yl)-3-isopropyl-1H-indol-5-yl)piperidin-1-yl)ethan-1-one]",15.4,36.3,973,,,
"Cc1cc(-c2[nH]c3ccc(C4CCN(C5CCOCC5)CC4)cc3c2C(C)C)c(F)cn1 [Example 715, 2-(5-fluoro-2-methylpyridin-4-yl)-3-isopropyl-5-(1-(tetrahydro-2H-pyran-4-yl)piperidin-4-yl)-1H-indole]",20.7,3.8,2990,,,
"Cc1cc(-c2[nH]c3ccc(C4CCN(C=O)CC4)cc3c2C(C)C)cc(C)n1 [Example 862, 4-(2-(2,6-dimethylpyridin-4-yl)-3-isopropyl-1H-indol-5-yl)piperidine-1-carbaldehyde]",,,,5.1,120,> 50000
"Cc1cnc(F)cc1-c1[nH]c2ccc(C3CCNCC3)cc2c1C(C)C [Example 28, 2-(2-fluoro-5-methylpyridin-4-yl)-3-isopropyl-5-(piperidin-4-yl)-1H-indole]",7.2,33.9,3430,,,
"Cc1cc(-c2[nH]c3ccc(C4CCN(C(=O)[C@@H]5C[C@@H](F)CN5)CC4)cc3c2C(C)C)cc(C)n1 [Example 190, (4-(2-(2,6-dimethylpyridin-4-yl)-3-isopropyl-1H-indol-5-yl)piperidin-1-yl)((2S,4R)-4-fluoropyrrolidin-2-yl)methanone]",1.6,9.6,281,,,
"Cc1cc(-c2[nH]c3ccc(C4CCN(C5COC5)CC4)cc3c2C(C)C)c(F)c(C)n1 [Example 729, 2-(3-fluoro-2,6-dimethylpyridin-4-yl)-3-isopropyl-5-(1-(oxetan-3-yl)piperidin-4-yl)-1H-indole]",10.1,33.6,3620,,,
"CCOCCN1CCC(c2ccc3[nH]c(-c4ccnc(C)c4)c(C(C)C)c3c2)CC1 [Example 659, 5-(1-(2-ethoxyethyl)piperidin-4-yl)-3-isopropyl-2-(2-methylpyridin-4-yl)-1H-indole]",31.7,16.7,1450,,,
